These results are taken from PMC10999543, “Identification of kinase modulators as host-directed therapeutics against intracellular methicillin-resistant Staphylococcus aureus” (Frontiers in Cellular and Infection Microbiology, 2024).

Where two headings read alike, the source gives them in different places.

One series deals with intracellular MRSA. The format is cell-based, Staphylococcus aureus. The following applies: for %GFP+ rep 1 / z-scoreMRSA+ rep 1: replicate 1; for %GFP+ rep 2 / z-scoreMRSA+ rep 2: replicate 2; for %GFP+ rep 3 / z-scoreMRSA+ rep 3: replicate 3; for z-scoreMRSA+ mean: mean of 3 replicates. An outline of the steps:
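Values are z-scores: GFP-positive HeLa percentage and event count per well against plate statistics, minus the mean DMSO z-score. Wells deviating two-fold from controls were left out of plate means. Infection was at a mean MOI of 6.8, with an overnight compound exposure.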

The next series concerns HeLa cells. Put plainly: Compound screen by flow cytometry: HeLa cell count as surrogate readout of cell viability (z-scoreHeLa). For all read-outs here: test concentration or dose not given here. The format is cell-based, human. The following applies: for cell count rep 1 / z-scoreHeLa rep 1: replicate 1; for cell count rep 2 / z-scoreHeLa rep 2: replicate 2; for cell count rep 3 / z-scoreHeLa rep 3: replicate 3; for z-scoreHeLa mean: mean of 3 replicates. An outline of the steps: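 The viability surrogate was the count of fixed HeLa cells by flow cytometry, converted to z-scores against DMSO controls with values deviating two-fold excluded. Before counting, cells had been infected with MRSA for 1 h and cleared of extracellular bacteria with gentamicin. They were then exposed overnight to kinase inhibitors in triplicate.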

[1] abbreviates: PKIS compound screen raw data, MRSA-infected HeLa cells.
[2] abbreviates: PKIS compound screen, MRSA-infected HeLa cells.
Where [3] appears, read: PKIS compound screen, Yes/No call (effect without cell death).
Setting [4] is: PKIS compound screen, Yes/No call on z-scoreMRSA+.
Setting [5] is: PKIS compound screen raw data, HeLa cell count.
[6] abbreviates: PKIS compound screen, HeLa cell count.
Where [7] appears, read: PKIS compound screen, Yes/No call on z-scoreHeLa.
[8] abbreviates: PKIS compound screen, Yes/No call.
Where [9] appears, read: PKIS compounds raw data, MRSA-infected HeLa cells.
Setting [10] is: PKIS compounds raw data, HeLa cell count.
Setting [11] is: compound screen, MRSA-infected HeLa cells.
[12] abbreviates: compound screen, HeLa cell count.
Throughout, for %GFP+ rep 1: test concentration or dose not given here.
Throughout, for %GFP+ rep 2: test concentration or dose not given here.
Throughout, for %GFP+ rep 3: test concentration or dose not given here.
Throughout, for effect: test concentration or dose not given here.
Throughout, for z-scoreMRSA+ mean: test concentration or dose not given here.
Throughout, for z-scoreMRSA+ rep 1: test concentration or dose not given here.
Throughout, for z-scoreMRSA+ rep 2: test concentration or dose not given here.
Throughout, for z-scoreMRSA+ rep 3: test concentration or dose not given here.

For the molecule `OCCCNc1nccc(-c2c(-c3ccc(F)cc3)nn3cc(C(F)(F)F)ccc23)n1` [GW569293E], in the series on intracellular MRSA (setting [1]), the “%GFP+ rep 1” value was 17.0%, the “%GFP+ rep 2” value worked out at 16.9% and the “%GFP+ rep 3” value turned out to be 19.3%. Moreover, in the series with intracellular MRSA (setting [2]), the “z-scoreMRSA+ mean” value is reported as -0.30, the “z-scoreMRSA+ rep 1” value is on record as -0.27, the “z-scoreMRSA+ rep 2” value is on record as -0.49 and the “z-scoreMRSA+ rep 3” value is on record as -0.15. Also, the hit result in the series with intracellular MRSA (setting [3]) is “No”. For the same molecule, the effect entry with intracellular MRSA (setting [4]) is “No”. Further, in the series with HeLa cells (setting [5]), the “cell count rep 1” value came out at 13158, the “cell count rep 2” value is recorded as 40183 and the “cell count rep 3” value came to 38241. Further, in the series with HeLa cells (setting [6]), the z-scoreHeLa mean is given as -0.14, the “z-scoreHeLa rep 1” value is listed as -1.06, the “z-scoreHeLa rep 2” value was 1.01 and the “z-scoreHeLa rep 3” value is recorded as -0.36. Further, in the series with HeLa cells (setting [7]), the cell death result is recorded as “No”.
For `CNC(=O)c1cc(-c2ccc(F)cc2)cc(-c2ccc(S(=O)(=O)N3CCCC3)cc2)c1N` [GSK635416A], the effect entry in the series on intracellular MRSA (setting [8]) is reported as “No”. Moreover, the hit entry in the series on intracellular MRSA (setting [3]) is listed as “No”. For the same molecule, in the series on intracellular MRSA (PKIS compound screen), the “z-scoreMRSA+ mean” value is -0.63, the “z-scoreMRSA+ rep 1” value was -0.38, the “z-scoreMRSA+ rep 2” value was -0.50 and the “z-scoreMRSA+ rep 3” value was -1.00. Further, in the series on intracellular MRSA (setting [9]), the “%GFP+ rep 1” value was 12.0%, the “%GFP+ rep 2” value amounted to 12.0% and the “%GFP+ rep 3” value was 12.5%. Further, the cell death result in the series on HeLa cells (setting [8]) is “No”. Also, in the series with HeLa cells (PKIS compound screen), the z-scoreHeLa mean is -0.10, the “z-scoreHeLa rep 1” value is recorded as -0.27, the “z-scoreHeLa rep 2” value was 0.000722 and the “z-scoreHeLa rep 3” value is -0.04. Also, in the series with HeLa cells (setting [10]), the “cell count rep 1” value was found to be 4473, the “cell count rep 2” value was 4269 and the “cell count rep 3” value was determined as 6877.
In the case of `Fc1cc(Cl)ccc1Nc1ccnc2cc(-c3ccc(CN4CCOCC4)o3)ccc12` [GW560109X], in the series on intracellular MRSA (setting [1]), the “%GFP+ rep 1” value turned out to be 14.2%, the “%GFP+ rep 2” value was determined as 18.0% and the “%GFP+ rep 3” value was found to be 17.4%. In the series on intracellular MRSA (setting [2]), the “z-scoreMRSA+ mean” value is reported as -0.89, the “z-scoreMRSA+ rep 1” value is given as -1.22, the “z-scoreMRSA+ rep 2” value was -0.38 and the “z-scoreMRSA+ rep 3” value was -1.05. Besides, the effect entry in the series with intracellular MRSA (setting [8]) is listed as “No”. The hit entry in the series with intracellular MRSA (setting [3]) was “No”. In addition, the effect result in the series with intracellular MRSA (setting [4]) was “No”. In the series with intracellular MRSA (PKIS compound screen), the “z-scoreMRSA+ mean” value is on record as 0.05, the “z-scoreMRSA+ rep 1” value is recorded as 0.36, the “z-scoreMRSA+ rep 2” value is recorded as -0.28 and the “z-scoreMRSA+ rep 3” value turned out to be 0.06. In addition, in the series with intracellular MRSA (setting [9]), the “%GFP+ rep 1” value is 28.9%, the “%GFP+ rep 2” value stood at 24.6% and the “%GFP+ rep 3” value is 27.6%. Further, in the series with HeLa cells (setting [5]), the “cell count rep 1” value is given as 37673, the “cell count rep 2” value worked out at 25490 and the “cell count rep 3” value was 23726. In the series on HeLa cells (setting [6]), the z-scoreHeLa mean amounted to 0.75, the “z-scoreHeLa rep 1” value is 1.27, the “z-scoreHeLa rep 2” value worked out at 0.037 and the “z-scoreHeLa rep 3” value was 0.94. For the same molecule, the cell death entry in the series on HeLa cells (setting [8]) is “No”. Also, the cell death result in the series with HeLa cells (setting [7]) is listed as “No”. In the series on HeLa cells (PKIS compound screen), the z-scoreHeLa mean was found to be 0.33, the “z-scoreHeLa rep 1” value is -0.12, the “z-scoreHeLa rep 2” value worked out at 0.0321 and the “z-scoreHeLa rep 3” value worked out at 1.09. Moreover, in the series on HeLa cells (setting [10]), the “cell count rep 1” value is listed as 5844, the “cell count rep 2” value worked out at 6056 and the “cell count rep 3” value was determined as 7316.
For the molecule `Cc1ccc(O)cc1Nc1ccnc2cc(-c3ccc(CN4CCCCC4)o3)ccc12` [GW557777X], in the series with intracellular MRSA (setting [1]), the “%GFP+ rep 1” value stood at 13.1%, the “%GFP+ rep 2” value stood at 14.2% and the “%GFP+ rep 3” value turned out to be 14.8%. For the same molecule, in the series with intracellular MRSA (setting [2]), the “z-scoreMRSA+ mean” value is reported as -1.44, the “z-scoreMRSA+ rep 1” value is -1.51, the “z-scoreMRSA+ rep 2” value is -1.30 and the “z-scoreMRSA+ rep 3” value is recorded as -1.52. For the same molecule, the hit result in the series with intracellular MRSA (setting [3]) is given as “No”. Moreover, the effect result with intracellular MRSA (setting [4]) is “No”. In the series with HeLa cells (setting [5]), the “cell count rep 1” value came out at 30186, the “cell count rep 2” value is listed as 37597 and the “cell count rep 3” value worked out at 49690. In the series on HeLa cells (setting [6]), the z-scoreHeLa mean came out at 1.17, the “z-scoreHeLa rep 1” value was determined as 1.53, the “z-scoreHeLa rep 2” value amounted to 0.52 and the “z-scoreHeLa rep 3” value is reported as 1.46. The cell death result in the series on HeLa cells (setting [7]) is reported as “No”.
As for `Cc1n[nH]c2ccc(-c3cc(OC[C@@H](N)Cc4ccccc4)cnc3-c3ccoc3)cc12` [GSK507358A], in the series with intracellular MRSA (setting [8]), the effect result is “No”. For the same molecule, the hit entry in the series on intracellular MRSA (setting [3]) was “No”. Further, in the series with intracellular MRSA (PKIS compound screen), the “z-scoreMRSA+ mean” value is -1.58, the “z-scoreMRSA+ rep 1” value was -1.88, the “z-scoreMRSA+ rep 2” value is recorded as -1.31 and the “z-scoreMRSA+ rep 3” value was -1.55. Moreover, in the series on intracellular MRSA (setting [9]), the “%GFP+ rep 1” value came out at 17.4%, the “%GFP+ rep 2” value was 19.2% and the “%GFP+ rep 3” value was found to be 18.9%. Besides, the cell death result in the series on HeLa cells (setting [8]) is given as “No”. Further, in the series with HeLa cells (PKIS compound screen), the z-scoreHeLa mean came out at 1.21, the “z-scoreHeLa rep 1” value is 1.04, the “z-scoreHeLa rep 2” value came out at 1.55 and the “z-scoreHeLa rep 3” value is 1.04. Further, in the series on HeLa cells (setting [10]), the “cell count rep 1” value is on record as 7770, the “cell count rep 2” value is on record as 8336 and the “cell count rep 3” value is given as 7240.
As for `Cc1nn2c(=O)cc(N3CCOCC3)nc2n1Cc1cccc(Cl)c1Cl` [GSK2342769A], in the series on intracellular MRSA (setting [1]), the “%GFP+ rep 1” value turned out to be 10.7%, the “%GFP+ rep 2” value was 10.7% and the “%GFP+ rep 3” value was determined as 15.0%. Besides, in the series on intracellular MRSA (setting [2]), the “z-scoreMRSA+ mean” value was -2.08, the “z-scoreMRSA+ rep 1” value is reported as -2.16, the “z-scoreMRSA+ rep 2” value is -2.38 and the “z-scoreMRSA+ rep 3” value is -1.70. The effect entry with intracellular MRSA (setting [8]) is “No”. Besides, the hit result in the series on intracellular MRSA (setting [3]) was “No and Yes”. Further, the effect entry with intracellular MRSA (setting [4]) is listed as “Yes”. In addition, in the series on intracellular MRSA (PKIS compound screen), the “z-scoreMRSA+ mean” value is -0.59, the “z-scoreMRSA+ rep 1” value is listed as -0.67, the “z-scoreMRSA+ rep 2” value was -0.54 and the “z-scoreMRSA+ rep 3” value is on record as -0.55. Further, in the series on intracellular MRSA (setting [9]), the “%GFP+ rep 1” value is on record as 23.6%, the “%GFP+ rep 2” value stood at 23.2% and the “%GFP+ rep 3” value was 24.3%. In addition, in the series with HeLa cells (setting [5]), the “cell count rep 1” value was 31673, the “cell count rep 2” value worked out at 24146 and the “cell count rep 3” value was 21902. Moreover, in the series with HeLa cells (setting [6]), the z-scoreHeLa mean is 0.21, the “z-scoreHeLa rep 1” value came out at 0.25, the “z-scoreHeLa rep 2” value is -0.19 and the “z-scoreHeLa rep 3” value is 0.58. Besides, the cell death entry in the series with HeLa cells (setting [8]) was “No”. Besides, the cell death result with HeLa cells (setting [7]) is “No”. For the same molecule, in the series on HeLa cells (PKIS compound screen), the z-scoreHeLa mean is given as -1.49, the “z-scoreHeLa rep 1” value is recorded as -1.68, the “z-scoreHeLa rep 2” value is -1.59 and the “z-scoreHeLa rep 3” value is given as -1.19. In the series on HeLa cells (setting [10]), the “cell count rep 1” value is 3246, the “cell count rep 2” value is recorded as 3614 and the “cell count rep 3” value is on record as 3721.
Regarding `Cc1ccc2c(c1)C(=NNc1ccc(S(N)(=O)=O)cc1)C(=O)N2` [GW275944X], in the series with intracellular MRSA (setting [9]), the “%GFP+ rep 1” value stood at 14.2%, the “%GFP+ rep 2” value is recorded as 14.3% and the “%GFP+ rep 3” value was 12.8%. Also, in the series on intracellular MRSA (Yes/No call from z-scoreMRSA+), the effect entry was “No”. Also, the hit entry in the series on intracellular MRSA (Yes/No: effect without cell death) is “No”. Also, in the series on intracellular MRSA (setting [11]), the “z-scoreMRSA+ mean” value is on record as -0.10, the “z-scoreMRSA+ rep 1” value stood at 0.33, the “z-scoreMRSA+ rep 2” value is on record as 0.27 and the “z-scoreMRSA+ rep 3” value is listed as -0.91. In the series with HeLa cells (setting [10]), the “cell count rep 1” value came to 3417, the “cell count rep 2” value is on record as 4418 and the “cell count rep 3” value turned out to be 6627. For the same molecule, in the series on HeLa cells (Yes/No call from z-scoreHeLa), the cell death entry is recorded as “No”. In the series with HeLa cells (setting [12]), the z-scoreHeLa mean is reported as -0.43, the “z-scoreHeLa rep 1” value is reported as -1.23, the “z-scoreHeLa rep 2” value worked out at 0.11 and the “z-scoreHeLa rep 3” value was -0.16.
